From ChEMBL document CHEMBL4052737, “3-Oxo-γ-costic acid fungal-transformation generates eudesmane sesquiterpenes with in vitro tumor-inhibitory activity” (Bioorg Med Chem Lett, 2017)
The source made the active and inactive calls. The calls are words filed in the database; no cut-off is given here.

Columns and labels:
Format in all cases: functional, cell-based
[1] = test system: Caco-2; assay: Antiproliferative activity against human Caco2 cells after 48 hrs by MTT assay; settings: for IC50: Caco-2, 48 h
[2] = test system: A549; assay: Antiproliferative activity against human A549 cells after 48 hrs by MTT assay; settings: for IC50: A549, 48 h
[3] = test system: Caco-2; assay: Induction of morphological changes in human Caco2 cells assessed as cell shrinkage at 50 uM by bright field phase contrast microscopy
[4] = test system: Caco-2; assay: Induction of morphological changes in human Caco2 cells assessed as monolayer disruption at 50 uM by bright field phase contrast microscopy

SMILES | IC50 [1] | IC50 [2] | Activity [1] | Activity [2] | Activity [3] | Activity [4]
C=C(C(=O)O)[C@@H]1CC[C@@]2(C)C[C@H](O)C(=O)C(C)=C2C1 | 60 µM | > 100 µM | Dose-dependent effect | Dose-dependent effect | – | –
C=C(C(=O)O)[C@@H]1CC[C@@]2(C)C=CC(=O)C(C)=C2C1 | 66 µM | > 100 µM | Dose-dependent effect | Dose-dependent effect | – | –
C=C(C(=O)O)[C@@H]1CC[C@]2(C)C(=C(C)C(=O)[C@@H](O)[C@H]2O)C1 | 66 µM | 74 µM | Dose-dependent effect | Dose-dependent effect | – | –
C=C(C(=O)O)[C@@H]1CC[C@]2(C)C(=C(C)C(=O)C[C@H]2O)C1 | 75 µM | > 100 µM | Dose-dependent effect | Dose-dependent effect | – | –

Compounds with a lower IC50 [1], results first:

IC50 [1] | IC50 [2] | SMILES | Activity [1] | Activity [2] | Activity [3] | Activity [4]
46 µM | > 100 µM | C=C(C(=O)O)[C@@H]1CC[C@@]2(C)C=C(O)C(=O)C(C)=C2C1 | Dose-dependent effect | Dose-dependent effect | – | –
39 µM | > 100 µM | C=C(C(=O)O)[C@@H]1CC[C@@]2(C)CCC(=O)C(C)=C2C1 | Dose-dependent effect | Dose-dependent effect | Active | Active
